# In PubChem BioAssay (NCI):
#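 How tested: cells in 96-well plates exposed to compound for 48 hours at five concentrations. TGI marks complete inhibition of growth.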
# Experiments:
# Test in all cases: growth of human tumour cells (NCI), 48 h
# SNB-19 CNS = test system: SNB-19 CNS
# TK-10 renal = test system: TK-10 renal
# HCT-15 colon = test system: HCT-15 colon
# HL-60(TB) leukemia = test system: HL-60(TB) leukemia
# OVCAR-8 ovarian = test system: OVCAR-8 ovarian
# ACHN renal = test system: ACHN renal
# HOP-92 NSCLC = test system: HOP-92 NSCLC
# HCT-116 colon = test system: HCT-116 colon
# M14 melanoma = test system: M14 melanoma
# SK-MEL-5 melanoma = test system: SK-MEL-5 melanoma
# EKVX NSCLC = test system: EKVX NSCLC
# MOLT-4 leukemia = test system: MOLT-4 leukemia
# MDA-MB-435 = test system: MDA-MB-435
# CCRF-CEM leukemia = test system: CCRF-CEM leukemia
SMILES,TGI (SNB-19 CNS),TGI (TK-10 renal),TGI (HCT-15 colon),TGI (HL-60(TB) leukemia),TGI (OVCAR-8 ovarian),TGI (ACHN renal),TGI (HOP-92 NSCLC),TGI (HCT-116 colon),TGI (M14 melanoma),TGI (SK-MEL-5 melanoma),TGI (EKVX NSCLC),TGI (MOLT-4 leukemia),TGI (MDA-MB-435),TGI (CCRF-CEM leukemia)
CC(O)(Cc1ccccc1C#N)Cc1ccccc1C#N,> 100 µM,> 100 µM,> 100 µM,97.7 µM,> 100 µM,> 100 µM,> 100 µM,> 100 µM,> 100 µM,> 100 µM,> 100 µM,> 100 µM,> 100 µM,
Cc1cc(C)n(CC(Cn2nc(C)cc2C)=C(/C(Cl)=C(/Cl)Nc2ccc([N+](=O)[O-])cc2)[N+](=O)[O-])n1,17.6 µM,12.5 µM,> 31.5 µM,4.3 µM,14.6 µM,11.6 µM,8.48 µM,14.3 µM,16.6 µM,4.97 µM,13.8 µM,4.77 µM,8.95 µM,2.48 µM
Nc1c(C(=O)O)nnc2cc(Cl)c(Cl)cc12,> 100 µM,> 100 µM,> 100 µM,> 100 µM,> 100 µM,> 100 µM,,> 100 µM,> 100 µM,> 100 µM,> 100 µM,> 100 µM,> 100 µM,> 100 µM
Cn1cnc([N+](=O)[O-])c1Sc1nc(N)nc2c1ncn2C1OC(CO)C(O)C1O (centres undefined),> 100 µM,87.6 µM,> 100 µM,28.4 µM,> 100 µM,> 100 µM,> 100 µM,> 52.2 µM,> 100 µM,25.7 µM,> 100 µM,> 100 µM,29.7 µM,> 100 µM
CC(C)(C)OC(=O)NC(CCCCNC(=O)OCc1ccccc1)C(=O)NCCNc1ccc(NCCNC(=O)C(CCCCNC(=O)OCc2ccccc2)NC(=O)OC(C)(C)C)c2c1C(=O)c1ccccc1C2=O (centres undefined),45.9 µM,> 100 µM,> 100 µM,,> 78.1 µM,> 100 µM,> 71.4 µM,> 75.1 µM,> 100 µM,> 100 µM,> 100 µM,> 100 µM,> 100 µM,> 100 µM
CC(C)(C)OC(=O)n1c2ccccc2c2c(=O)nc(N3CCCCC3)sc21,> 100 µM,> 100 µM,> 100 µM,> 100 µM,> 100 µM,> 100 µM,> 100 µM,,> 100 µM,> 100 µM,> 100 µM,> 100 µM,> 100 µM,> 100 µM
CN(C)c1ccc(C=Nc2ccc(Oc3ccc(Cl)cc3)c(Cl)c2)cc1,41.3 µM,> 100 µM,41.7 µM,40.1 µM,36.8 µM,79.6 µM,36.1 µM,34.5 µM,87.1 µM,33.4 µM,40.8 µM,66.3 µM,> 100 µM,57.7 µM
